Experimental data taken from patent publication US20090123397A1, “Microbiocidal compositions” (Thor Specialities (UK) Limited, priority 2005, published 2009).

How the values were obtained:
Experiment in all cases: Efficacy of C5 alkane diols vs. C8 alkane diols
Format in all cases: cell-based
Set-up in all cases: key: + = no growth inhibition; − = growth inhibition
Aspergillus Niger = tested on: Aspergillus Niger
Experimental: (§1) Tables VIIIA to VIIID—Efficacy of C5 alkane diols vs. C8 alkane diols. […] Tables VIIIA to VIIID above illustrate the results of tests of the efficacy of octane diol compared to pentane diol on various organisms. These tests were carried out in a similar manner to those described above. The percentages at the top line of each table indicate the amount of diol used by weight in the preservative mixture.

Candida albicans = tested on: Candida albicans
Experimental: as §1

Pseudomonas aeruginosa = tested on: Pseudomonas aeruginosa
Experimental: as §1

Staphylococcus aureus = tested on: Staphylococcus aureus
Experimental: as §1

CCCC(O)CO (stereo not shown) [1,2 Pentane diol, reference compound] was tested, and the growth inhibition (Aspergillus Niger; diol 0.2% by weight) was “+”, the growth inhibition (Aspergillus Niger; diol 0.4% by weight) was “+” and the growth inhibition (Aspergillus Niger; diol 0.6% by weight) was “+”. For the same compound, the growth inhibition (Aspergillus Niger; diol 0.8% by weight) was “+”, the growth inhibition (Aspergillus Niger; diol 1.0% by weight) was “+” and the growth inhibition (Candida albicans; diol 0.2% by weight) was “+”. The growth inhibition (Candida albicans; diol 0.4% by weight) was “+”, the growth inhibition (Candida albicans; diol 0.6% by weight) was “+” and the growth inhibition (Candida albicans; diol 0.8% by weight) was “+”. For the same compound, the growth inhibition (Candida albicans; diol 1.0% by weight) was “+”, the growth inhibition (Pseudomonas aeruginosa; diol 0.2% by weight) was “+” and the growth inhibition (Pseudomonas aeruginosa; diol 0.4% by weight) was “+”. The growth inhibition (Pseudomonas aeruginosa; diol 0.6% by weight) was “+”, the growth inhibition (Pseudomonas aeruginosa; diol 0.8% by weight) was “+” and the growth inhibition (Pseudomonas aeruginosa; diol 1.0% by weight) was “+”. For the same compound, the growth inhibition (Staphylococcus aureus; diol 0.2% by weight) was “+”, the growth inhibition (Staphylococcus aureus; diol 0.4% by weight) was “+” and the growth inhibition (Staphylococcus aureus; diol 0.6% by weight) was “+”. For the same compound, the growth inhibition (Staphylococcus aureus; diol 0.8% by weight) was “+” and the growth inhibition (Staphylococcus aureus; diol 1.0% by weight) was “+”.

For CCCCCCC(O)CO (stereo not shown) [1,2-Octane diol], the growth inhibition (Aspergillus Niger; diol 0.2% by weight) was “−”, the growth inhibition (Aspergillus Niger; diol 0.4% by weight) was “−” and the growth inhibition (Aspergillus Niger; diol 0.6% by weight) was “−”. For the same compound, the growth inhibition (Aspergillus Niger; diol 0.8% by weight) was “−”, the growth inhibition (Aspergillus Niger; diol 1.0% by weight) was “−” and the growth inhibition (Candida albicans; diol 0.2% by weight) was “+”. The growth inhibition (Candida albicans; diol 0.4% by weight) was “−”, the growth inhibition (Candida albicans; diol 0.6% by weight) was “−” and the growth inhibition (Candida albicans; diol 0.8% by weight) was “−”. For the same compound, the growth inhibition (Candida albicans; diol 1.0% by weight) was “−”, the growth inhibition (Pseudomonas aeruginosa; diol 0.2% by weight) was “+” and the growth inhibition (Pseudomonas aeruginosa; diol 0.4% by weight) was “−”. The growth inhibition (Pseudomonas aeruginosa; diol 0.6% by weight) was “−”, the growth inhibition (Pseudomonas aeruginosa; diol 0.8% by weight) was “−” and the growth inhibition (Pseudomonas aeruginosa; diol 1.0% by weight) was “−”. For the same compound, the growth inhibition (Staphylococcus aureus; diol 0.2% by weight) was “−”, the growth inhibition (Staphylococcus aureus; diol 0.4% by weight) was “−” and the growth inhibition (Staphylococcus aureus; diol 0.6% by weight) was “−”. The growth inhibition (Staphylococcus aureus; diol 0.8% by weight) was “−” and the growth inhibition (Staphylococcus aureus; diol 1.0% by weight) was “−”.
